Test results reported in patent EP4309500B1, “PEROXIDASE BASED BIOCONTROL AGENTS” (Acies Bio d.o.o., priority 2022, dated 2024).
Read-outs that look alike come from different tables or passages of the source.

Experiments:
[1] = tested on: HydPOXs, HydPOX peroxidase without proregion (amino acids 117 to 659 of SEQ ID NO: 1), SEQ ID NO: 18; details: ABTS 0.025 - 5 mM, 6.45 nM peroxidase, 100 µM H2O2, 50 mM sodium acetate buffer pH 5.0, 25 °C (Example 12)
Protocol: (§1) The assays were performed in triplicates on a TECAN microtiter plate reader in a total of 200 µL. […] The oxidation reaction was read for 30 min at 25 °C.

[2] = tested on: LspPOX, peroxidase from Lyngbya sp. (strain PCC 8106), mature protein amino acids 117-661 of SEQ ID NO: 12; details: ABTS 0.025 - 5 mM, 6.45 nM peroxidase, 100 µM H2O2, 50 mM sodium acetate buffer pH 5.0, 25 °C (Example 12)
Protocol: as §1

[3] = tested on: LspPOX, peroxidase from Lyngbya sp. (strain PCC 8106), mature protein amino acids 117-661 of SEQ ID NO: 12; details: ABTS 0.025 - 10 mM, 10 nM peroxidase, 100 µM H2O2, 50 mM phosphate buffer pH 6.0, 25 °C, optimized fitting (Example 4.1)
Protocol: (§2) The reaction in presence of H2O2 can be easily measured on microplate reader.
The oxidation reaction was read for 30 min at 25 °C.

[4] = tested on: LspPOX, peroxidase from Lyngbya sp. (strain PCC 8106), mature protein amino acids 117-661 of SEQ ID NO: 12; details: ABTS 0.025 - 10 mM, 10 nM peroxidase, H2O2, 50 mM phosphate buffer pH 6.0, 25 °C (Example 4)
Protocol: as §2
The oxidation reaction was read for 30 min at 25 °C. […] The concentration of the added H2O2 solution was 200 µM.

[5] = molecular target: T1, LpoPOX, bovine lactoperoxidase, commercial protein, SEQ ID NO: 16 (lacks the propeptide region) (Bos taurus, UniProt P80025); test: Thymol blue assay (halogenation assay), kinetics at 0.1 mM H2O2 (Example 13); type: biochemical; details: KI 0.03 - 4 mM, 0.1 mM H2O2, 100 µM thymol blue, 1 µg/ml peroxidase
T1 construct: purchased
Protocol: (§3) The bacterial peroxidases (HydPOX, HydPOXs, OkePOXs) were compared to LpoPOX and LspPOX under these modified conditions.
(§4) The enzymatic reactions were performed at room temperature for 30 min in clear flat-bottomed microplate wells containing 200 µl 0.1 M phosphate buffer pH 7.2, 100 µM thymol blue, 1 µg/ml of recombinant bacterial peroxidase (or commercial LpoPOX as defined in SEQ ID NO: 16), H2O2 and a reducing agent such as I^- (general assay setup).
(§5) Kinetic constants were calculated using a nonlinear regression fitting curve (Figure 9A). […] For this reason, K0.5 values are used indicating the substrate concentration at which half maximal velocity/half-saturation is achieved.

[6] = tested on: OkePOXs, functional fragment of OkePOX heme peroxidase from Okeania hirsuta (amino acids 117 to 659 of SEQ ID NO: 11), SEQ ID NO: 25 or 27; details: KI 0.03 - 4 mM, 0.1 mM H2O2, 100 µM thymol blue, 1 µg/ml peroxidase
Protocol: as §3, §4, §5

[7] = tested on: HydPOXs, HydPOX peroxidase without proregion (amino acids 117 to 659 of SEQ ID NO: 1), SEQ ID NO: 18; details: KI 0.03 - 4 mM, 0.1 mM H2O2, 100 µM thymol blue, 1 µg/ml peroxidase, 0.1 M phosphate buffer pH 7.2, room temperature (Example 13)
Protocol: as §3, §4, §5

[8] = tested on: LspPOX, peroxidase from Lyngbya sp. (strain PCC 8106), mature protein amino acids 117-661 of SEQ ID NO: 12; test: Thymol blue assay (halogenation assay), kinetics at 0.1 mM H2O2 (Example 13); type: biochemical, Lyngbya sp. PCC 8106; details: KI 0.03 - 4 mM, 0.1 mM H2O2, 100 µM thymol blue, 1 µg/ml peroxidase
Protocol: as §3, §4, §5

[9] = 0.1 M phosphate buffer pH 7.2, room temperature (Example 13)
[10] = 0.1 M phosphate buffer pH 7.2, room temperature, sigmoidal fitting (Example 13), 30 min, read-out: K0.5

| Structure (SMILES) | kcat [1] | Km [2] | kcat [2] | Km [3] | kcat [3] | Km [4] | kcat [4] | kcat [5, 9] | kcat/K0.5 [5, 9] | Km [5, 10] | kcat [6, 9] | kcat/K0.5 [6, 9] | Km ([6]; read-out: K0.5, 0.1 M phosphate buffer pH 7.2, room temperature, sigmoidal fitting (Example 13), 30 min) | kcat [7] | kcat/K0.5 [7] | kcat [8, 9] | kcat/K0.5 [8, 9] | Km [8, 10] |
| --- | --- | --- | --- | --- | --- | --- | --- | --- | --- | --- | --- | --- | --- | --- | --- | --- | --- | --- |
| CCn1c(=NN=c2sc3cc(S(=O)(=O)O)ccc3n2CC)sc2cc(S(=O)(=O)O)ccc21 [ABTS, 2,2'-azino-bis (3-ethylbenzothiazoline-6-sulfonic acid)] | 95 s^1 | 1090 µM | 57 s^1 | 180 µM | 6.3 s⁻¹ | 237 µM | 7,45 s^-1 | – | – | – | – | – | – | – | – | – | – | – |
| [I-].[K+] [KI, potassium iodide] | – | – | – | – | – | – | – | 16.5 s⁻¹ | 12500 M⁻¹ s⁻¹ | 1320 µM | 13.7 s⁻¹ | 118600 M⁻¹ s⁻¹ | 120 µM | 10.6 s⁻¹ | 85100 M⁻¹ s⁻¹ | 14.7 s⁻¹ | 10600 M⁻¹ s⁻¹ | 1390 µM |
